Calls of active or inactive are those of the source. The calls are words filed in the database; no cut-off is given here.
Legend:
Cavia porcellus [1] = organism: Cavia porcellus; experiment: Concentration (1-100 uM) that causes 10% prolongation in the action potential duration at 90% […] in Guinea pig right ventricular papillary muscles; assay type: functional, Muscle tissue
Canis familiaris [2] = experiment: Percent change in rate of left ventricular pressure after intravenous administration of 1 mg/kg in Anesthetized Dogs; assay type: functional, Canis lupus familiaris, Heart left ventricle
Canis familiaris [3] = experiment: Percent change in rate of left ventricular pressure after intravenous administration of 3 mg/kg in Anesthetized Dogs; assay type: functional, Canis lupus familiaris, Heart left ventricle
Cavia porcellus [4] = organism: Cavia porcellus; experiment: The maximum percent change in the maximum rate rise of the action Potential in Guinea pig right ventricular papillary muscles at concentration 1-100 uM; NS=Not significant; assay type: functional; settings: Muscle tissue
Canis familiaris [5] = experiment: Percent change in QTc interval after intravenous administration of 3 mg/kg in Anesthetized Dogs; assay type: functional, Canis lupus familiaris
Canis familiaris [6] = experiment: Percent change in rate of left ventricular pressure after intravenous administration of 0.3 mg/kg in Anesthetized Dogs; assay type: functional, Canis lupus familiaris, Heart left ventricle
Canis familiaris [7] = experiment: Percent change in Heart rate after intravenous administration of 3 mg/kg in Anesthetized Dogs; assay type: functional, Canis lupus familiaris
Canis familiaris [8] = experiment: Percent change in Effective refractory period after intravenous administration of 0.3 mg/kg in Anesthetized Dogs; assay type: functional, Canis lupus familiaris
Canis familiaris [9] = experiment: Percent change in Mean Blood pressure after intravenous administration of 3 mg/kg in Anesthetized Dogs; assay type: functional, Canis lupus familiaris
Canis familiaris [10] = experiment: Percent change in QTc interval after intravenous administration of 1 mg/kg in Anesthetized Dogs; assay type: functional, Canis lupus familiaris
Canis familiaris [11] = experiment: Percent change in QTc interval after intravenous administration of 0.3 mg/kg in Anesthetized Dogs; assay type: functional, Canis lupus familiaris
Canis familiaris [12] = experiment: Percent change in Effective refractory period after intravenous administration of 3 mg/kg in Anesthetized Dogs; assay type: functional, Canis lupus familiaris
Cavia porcellus [13] = organism: Cavia porcellus; experiment: Maximum percent increase in 90% repolarization at a concentration of 100 uM in Guinea pig right ventricular papillary muscles; assay type: functional, Muscle tissue
Canis familiaris [14] = experiment: Percent change in Effective refractory period after intravenous administration of 1 mg/kg in Anesthetized Dogs; assay type: functional, Canis lupus familiaris
Canis familiaris [15] = experiment: Percent change in Mean Blood pressure after intravenous administration of 1 mg/kg in Anesthetized Dogs; assay type: functional, Canis lupus familiaris
Canis familiaris [16] = experiment: Percent change in Heart rate after intravenous administration of 0.3 mg/kg in Anesthetized Dogs; assay type: functional, Canis lupus familiaris
Canis familiaris [17] = experiment: Percent change in Heart rate after intravenous administration of 1 mg/kg in Anesthetized Dogs; assay type: functional, Canis lupus familiaris
Canis familiaris [18] = experiment: Percent change in Mean Blood pressure after intravenous administration of 0.3 mg/kg in Anesthetized Dogs; assay type: functional, Canis lupus familiaris
Canis familiaris [19] = experiment: Percent change in rate of left ventricular pressure after intravenous administration of 0.01 mg/kg in Anesthetized Dogs; assay type: functional, Canis lupus familiaris, Heart left ventricle
Canis familiaris [20] = experiment: Percent change in rate of left ventricular pressure after intravenous administration of 0.03 mg/kg in Anesthetized Dogs; assay type: functional, Canis lupus familiaris, Heart left ventricle
[21] = Half life of beta-elimination phase in plasma after oral administration of 10-50 mg/kg in conscious dogs; Range is 2.2-2.9; assay type: ADME, organism-based, Canis lupus familiaris; settings: dog
Canis familiaris [22] = experiment: Percent change in Heart rate after intravenous administration of 0.1 mg/kg in Anesthetized Dogs; assay type: functional, Canis lupus familiaris
Canis familiaris [23] = experiment: Percent change in QTc interval after intravenous administration of 0.01 mg/kg in Anesthetized Dogs; assay type: functional, Canis lupus familiaris
Cavia porcellus [24] = organism: Cavia porcellus; experiment: The maximum percent change in the maximum rate rise of the action Potential in Guinea pig right ventricular papillary muscles at concentration 0.1-100 uM; NS=Not significant; assay type: functional; settings: Muscle tissue
Canis familiaris [25] = experiment: Percent change in Mean Blood pressure after intravenous administration of 0.03 mg/kg in Anesthetized Dogs; assay type: functional, Canis lupus familiaris
Canis familiaris [26] = experiment: Percent change in Effective refractory period after intravenous administration of 0.1 mg/kg in Anesthetized Dogs; assay type: functional, Canis lupus familiaris
Canis familiaris [27] = experiment: Percent change in Heart rate after intravenous administration of 0.01 mg/kg in Anesthetized Dogs; assay type: functional, Canis lupus familiaris
Canis familiaris [28] = experiment: Percent change in Mean Blood pressure after intravenous administration of 0.01 mg/kg in Anesthetized Dogs; assay type: functional, Canis lupus familiaris
Canis familiaris [29] = experiment: Percent change in Heart rate after intravenous administration of 0.03 mg/kg in Anesthetized Dogs; assay type: functional, Canis lupus familiaris
Canis familiaris [30] = experiment: Percent change in rate of left ventricular pressure after intravenous administration of 0.1 mg/kg in Anesthetized Dogs; assay type: functional, Canis lupus familiaris, Heart left ventricle
Canis familiaris [31] = experiment: Percent change in Effective refractory period after intravenous administration of 0.01 mg/kg in Anesthetized Dogs
Canis familiaris [32] = experiment: Percent change in Effective refractory period after intravenous administration of 0.03 mg/kg in Anesthetized Dogs; assay type: functional, Canis lupus familiaris
Canis familiaris [33] = experiment: Percent change in QTc interval after intravenous administration of 0.03 mg/kg in Anesthetized Dogs; assay type: functional, Canis lupus familiaris
Canis familiaris [34] = experiment: Percent change in Mean Blood pressure after intravenous administration of 0.1 mg/kg in Anesthetized Dogs; assay type: functional, Canis lupus familiaris
Cavia porcellus [35] = organism: Cavia porcellus; experiment: Concentration (0.1-100 uM) that causes 10% prolongation in the action potential duration at 90% […] in Guinea pig right ventricular papillary muscles; assay type: functional, Muscle tissue
Canis familiaris [36] = experiment: Percent change in QTc interval after intravenous administration of 0.1 mg/kg in Anesthetized Dogs; assay type: functional, Canis lupus familiaris
Canis familiaris [37] = experiment: Percent change in Effective refractory period after intravenous administration of 0.01 mg/kg in Anesthetized Dogs; assay type: functional, Canis lupus familiaris
Canis familiaris [38] = experiment: Percent change in Heart rate after intravenous administration of 0.01 mg/kg in Anesthetized Dogs
[39] = Half life of beta-elimination phase in plasma after oral administration of 10-50 mg/kg in conscious dogs; Range is 1.4-2.1; assay type: ADME, organism-based, Canis lupus familiaris; settings: dog
Cavia porcellus [40] = organism: Cavia porcellus; experiment: Concentration (0.1-10 uM) that causes 10% prolongation in the action potential duration at 90% […] in Guinea pig right ventricular papillary muscles; assay type: functional, Muscle tissue
Canis familiaris [41] = experiment: Percent change in Effective refractory period after intravenous administration of 0.003 mg/kg in Anesthetized Dogs; assay type: functional, Canis lupus familiaris
Canis familiaris [42] = experiment: Percent change in Heart rate after intravenous administration of 0.003 mg/kg in Anesthetized Dogs; assay type: functional, Canis lupus familiaris
Cavia porcellus [43] = organism: Cavia porcellus; experiment: The maximum percent change in the maximum rate rise of the action Potential in Guinea pig right ventricular papillary muscles, at compound concentration 1-10 uM; NS=Not significant; assay type: functional; settings: Muscle tissue
Cavia porcellus [44] = organism: Cavia porcellus; experiment: Maximum percent increase in 90% repolarization at a concentration of 10 uM in Guinea pig right ventricular papillary muscles; assay type: functional, Muscle tissue
Cavia porcellus [45] = organism: Cavia porcellus; experiment: Concentration (1-10 uM) that causes 10% prolongation in the action potential duration at 90% […] in Guinea pig right ventricular papillary muscles; assay type: functional, Muscle tissue

| SMILES | C10APD90 (Cavia porcellus [1]) [µM] | Vmax (Cavia porcellus [4]) | Max APD90 (delta) (Cavia porcellus [13]) [%] | LV dP/dTmax(delta) (Canis familiaris [19]) [%] | LV dP/dTmax(delta) (Canis familiaris [20]) [%] | HR(delta) (Canis familiaris [22]) [%] | QTc delta (Canis familiaris [23]) [%] | mBP(delta) (Canis familiaris [25]) [%] | ERP (delta) (Canis familiaris [26]) [%] | HR(delta) (Canis familiaris [27]) [%] | mBP(delta) (Canis familiaris [28]) [%] | HR(delta) (Canis familiaris [29]) [%] | LV dP/dTmax(delta) (Canis familiaris [30]) [%] | ERP (delta) (Canis familiaris [32]) [%] | QTc delta (Canis familiaris [33]) [%] | mBP(delta) (Canis familiaris [34]) [%] | QTc delta (Canis familiaris [36]) [%] | ERP (delta) (Canis familiaris [37]) [%] | also measured |
| --- | --- | --- | --- | --- | --- | --- | --- | --- | --- | --- | --- | --- | --- | --- | --- | --- | --- | --- | --- |
| CC(C)NCC(O)c1ccc(NS(C)(=O)=O)cc1 (stereo not drawn) [SOTALOL] | 16.3 | inactive | 21 |  |  |  |  |  |  |  |  |  |  |  |  |  |  |  | LV dP/dTmax(delta) (Canis familiaris [2]): -4%; LV dP/dTmax(delta) (Canis familiaris [3]): 5%; QTc delta (Canis familiaris [5]): 23%; LV dP/dTmax(delta) (Canis familiaris [6]): -1%; HR(delta) (Canis familiaris [7]): -30%; ERP (delta) (Canis familiaris [8]): 5%; mBP(delta) (Canis familiaris [9]): -13%; QTc delta (Canis familiaris [10]): 11%; QTc delta (Canis familiaris [11]): 4%; ERP (delta) (Canis familiaris [12]): 26%; ERP (delta) (Canis familiaris [14]): 14%; mBP(delta) (Canis familiaris [15]): -7%; HR(delta) (Canis familiaris [16]): -6%; HR(delta) (Canis familiaris [17]): -19%; mBP(delta) (Canis familiaris [18]): 0% |
| CS(=O)(=O)Nc1ccc(C(=O)C2CCN(CCCc3ccncc3)CC2)cc1.Cl.Cl |  |  | 33 | 7 | 13 | -28 | 7 | -5 | 19 | -6 | 2 | -20 | 13 | 15 | 15 | -9 | 21 |  | half-life [21]: 2.2 h; Vmax (Cavia porcellus [24]): inactive; ERP (delta) (Canis familiaris [31]): 11%; C10APD90 (Cavia porcellus [35]): 0.19 µM |
| CS(=O)(=O)Nc1ccc(C(=O)C2CCN(CCc3cccnc3)CC2)cc1.Cl.Cl | 1.51 | inactive | 20 | 8 | 22 | -17 | 5 | -2 | 19 |  | -2 | -8 | 26 | 10 | 13 | -8 | 25 | 6 | HR(delta) (Canis familiaris [38]): -3%; half-life [39]: 1.4 h |
| Cc1cccc(CCN2CCC(C(=O)c3ccc(NS(C)(=O)=O)cc3)CC2)n1.Cl.Cl |  |  |  |  |  |  |  | -6 |  | -20 | -4 | -30 |  | 24 |  |  |  | 15 | C10APD90 (Cavia porcellus [40]): 0.13 µM; ERP (delta) (Canis familiaris [41]): 6%; HR(delta) (Canis familiaris [42]): -8% |
| CCCCCCC[N+](CC)(CC)CCCCc1ccc(Cl)cc1 [CLOFILIUM] |  |  |  |  |  |  |  |  |  |  |  |  |  |  |  |  |  |  | Vmax (Cavia porcellus [43]): inactive; Max APD90 (delta) (Cavia porcellus [44]): 13%; C10APD90 (Cavia porcellus [45]): 1 µM |
